Measurements published in ChEMBL document CHEMBL1127340, “A new approach to the design of sigma-2-selective ligands: synthesis and evaluation of N-[2-(3,4-dichlorophenyl)ethyl]-N-methyl-2-(1- pyrrolidinyl)ethylamine-related polyamines at sigma-1 and sigma-2 receptor subtypes” (J Med Chem, 1994).

Biological target: Sigma 2 receptor
Assay: Binding affinity towards sigma 2 receptor was determined in rat liver membrane using [3H]DTG as radioligand in presence of dextrallorphan
Assay type: cell membranes

Row | Ki | SMILES
1 | 0.0121 µM | CN(CCN(C)Cc1ccc(Cl)c(Cl)c1)CCN1CCCC1
2 | 0.0536 µM | CN(CCc1ccc(Cl)c(Cl)c1)CCN(C)CCN(C)CCN1CCCC1
3 | 0.0081 µM | CN(CCc1ccc(Cl)c(Cl)c1)CCN1CCCC1
4 | 0.135 µM | NCCN(CCc1ccc(Cl)c(Cl)c1)CCN1CCCC1
5 | 0.0144 µM | CN(CCc1ccc(Cl)c(Cl)c1)CCN(C)CCN1CCCC1
6 | 0.115 µM | CN(CCCCN(C)CCc1ccc(Cl)c(Cl)c1)CCCCN1CCCC1
7 | 0.162 µM | CN(CCc1ccc(Cl)c(Cl)c1)CCN(C)CCN(C)CCN(C)CCN1CCCC1
8 | 0.0149 µM | CN(CCCN(C)CCc1ccc(Cl)c(Cl)c1)CCCN1CCCC1
9 | 0.0526 µM | CN(CCCN(C)Cc1ccc(Cl)c(Cl)c1)CCN1CCCC1
10 | 0.183 µM | CN(CCCN1CCCC1)CCN(C)Cc1ccc(Cl)c(Cl)c1
11 | 0.537 µM | NCCNCCNCCc1ccc(Cl)c(Cl)c1
12 | 0.152 µM | CN(CCCCN1CCCC1)CCCN(C)CCc1ccc(Cl)c(Cl)c1
13 | 0.111 µM | Clc1ccc(CCNCCNCCN2CCCC2)cc1Cl

Row | SMILES | Ki
14 | NCCNCCc1ccc(Cl)c(Cl)c1 | 2.36 µM
15 | Clc1ccc(CCN2CCCC2)cc1Cl | 7.71 µM
